Tested on: active dry yeast “z”
Test: Scaled batch fermentation (4 L) of normal gravity corn mash: fermentation time and ethanol production
Type: cell-based, Saccharomyces cerevisiae
Settings: 4 L batch
Experimental: The fermentation rate in each nutrient-amended corn mash was determined by following the disappearance of dissolved solids by analysis of each sample collected for determination of yeast biomass production, with a digital density meter analyzer (model DMA-45, Anton Paar KG, Graz, Austria) maintained at 20° C. The amounts of ethanol produced during fermentation of each nutrient-amended corn mash were determined by measuring the amount of NADH+H^+ produced after ethanol was converted to acetaldehyde by alcohol dehydrogenase (ADH; Sigma Chemical Co.). An aliquot of each sample was collected for determination of yeast biomass production and diluted to 1:500. […] The absorbance of each tube was then measured at 340 nm after 15 min of incubation using water as the blank. To determine the amount of ethanol produced, a standard curve (ethanol concentration versus absorbance) was prepared using a standard 10% (w/v) ethanol preparation diluted to 1:500 and then diluted further to produce range of ethanol concentrations from 0 to 20 μg in the assay above. The linear equation (y=mx+b) obtained from the plot was used to calculate the amount of ethanol in the test solutions, where y was the absorbance and x was the amount (μg) of ethanol. […] Fermentation rates and ethanol production were determined by repeated sampling and sample processing at specific time intervals as described in Example 1.

In the case of NC(N)=O [urea], the maximum ethanol production is reported as 11 % v/v and the “time within which fermentation was completed” value is reported as at most 48 h.

Source: patent US20070190628A1, “Yeast food composition for fuel ethanol production” (priority 2006, published 2007)
